The NIST ThermoML archive (doi:10.1016/j.fluid.2018.05.005)
± gives the expanded uncertainty stated by the source.

How the values were obtained:
[1] = Crystal; DSC
[2] = Molar enthalpy of transition or fusion; details: Crystal; DSC

Compound: CC1(C)CCC2=C(O1)c1ccccc1C(=O)C2=O [3,4-dihydro-2,2-dimethyl-2H-naphtho[1,2-b]pyran-5,6-dione]
- Triple point temperature [1]: 428.99 ± 1.9 K
- Molar enthalpy of transition or fusion [2]: 5.86 ± 0.263 kcal/mol
